Experiments:
[1] = Autohydrolysis of esculin in MES buffer, RP-HPLC; assay type: physicochemical; conditions: 50 mM MES buffer (pH 7.0), 44 h at 25° C.
Procedure: (§1) FIG. 5: Investigation of ecsulin hydrolysis. Neither a) autohydrolysis in MES buffer nor b) hydrolysis in bacterial culture of esculin (12) was detected. Samples at 24 h, 44 h incubation and additionally a standard of the aglycone esculetin (11) are illustrated;
(§2) For these controls, samples were incubated for 44 h at 25° C. as in the standard experimental conditions, and analyzed by RP-HPLC to confirm the lack of aglycone (esculetin, 11) (FIG. S1).

[2] = tested on: E. coli transformed with pGEX-2T vector; assay: Hydrolysis of esculin in bacterial culture, RP-HPLC; conditions: 44 h at 25° C.
Procedure: as §1, §2

[3] = D-glucose adsorption by PVPP, HPAEC of samples treated with and without PVPP; assay type: physicochemical
Procedure: FIG. 8: Lack of D-glucose adsorption by PVPP.
High Performance Anion Exchange Chromatography (HPAEC): HPAEC coupled with integrated amperometric detection (IAD) (Dionex, U.K.) was used to detect D-glucose using a CarboPac™ PA10 column (2×250 mm, Dionex). Seven different monosaccharides including L-Fucose, L-rhamnose, D-galactose, L-arabinose, D-glucose, D-manose and D-xylose were used as references. The D-glucose was separated isocratically at a flow rate 0.35 mL/min with 24 mM NaOH (pH>12.5) over 18 min. The column was then washed with a linear gradient of NaOH from 24 mM to 200 mM over 5 min. The IAD waveform was set following manufacturer's recommendation.
Stage 3, detection: 50 μl of the reaction mix were transferred to a 96-well filtration plate (Abgene, U.K.), mixed with an equal volume of PVPP aqueous suspension (25 g/L), shaken for 1 h at 25° C. before centrifugation (1000 g, 5 min). To each filtrate, 50 mM 2-morpholino-ethanesulfonic acid buffer (MES) (pH 7.0), ABTS™ (0.1 mM), peroxidase (2 U) and glucose oxidase (2 U) were added to a final volume of 125 μl. The formation of the green dye was monitored at 405 nm at 30 min using a plate reader (Bio-Tec Instruments Inc., U.S.A).

O=c1ccc2cc(O[C@@H]3O[C@H](CO)[C@@H](O)[C@H](O)[C@H]3O)c(O)cc2o1 [esculin, esculetin-6-O-glucoside]
autohydrolysis during incubation [1]: lack of autohydrolysis | hydrolysis in the presence of the bacterial culture [2]: not hydrolyzed

O=C[C@H](O)[C@@H](O)[C@H](O)[C@H](O)CO [D-glucose]
loss of D-glucose by filtration through PVPP [3]: no significant loss

Reference: US20090280543A1, “REGIOSELECTIVE GLYCOSYLATION” (THE UNIVERSITY OF YORK, priority 2005, published 2009)
